Source: patent US20190008151A1, “PLANT DISEASE CONTROL COMPOSITION AND PLANT DISEASE CONTROL METHOD” (SUMITOMO CHEMICAL COMPANY, LIMITED, priority 2015, published 2019)

Legend:
[1] = system: wheat rust fungus (Puccinia recondite); test: Test Example 4: foliar spray of flowable formulations on wheat, inoculation with wheat rust fungus, lesion area; type: in vivo, Puccinia recondite on wheat (cultivar. Shirogane); conditions: lesion area after ten days at 23° C.
Protocol: Five (5) parts of the present compound 1, 35 parts of a mixture of white carbon and ammonium polyoxyethylene alkyl ether sulfate (the weight ratio of 1:1) and […] of water were mixed, and the mixture was then finely-ground by a wet grinding method to obtain a flowable formulation comprising the present compound 1. Separately, the flowable formulation comprising the present compound 2-1 was prepared according to the above-mentioned similar method except that the present compound 2-1 was used instead of the present compound 1 to form a flowable formulation comprising the present compound 2-1.
Each of the above-mentioned respective flowable formulations, and the flowable formulation comprising the present compound 1 and the present compound 2-1 that was prepared according to the above-mentioned Formulation Example 3 was diluted with water such that each concentration of the respective compounds in the dilution solutions was adjusted to that indicated in Table 5, to prepare the dilution solutions, respectively.
A plastic pot was filled with soil, and thereto wheat (cultivar. Shirogane) was seeded, and the plants were grown in a greenhouse for ten days. […]
From each of the lesion area of the treated group and the untreated group, respectively, the efficacy of the treated group was calculated by the below-mentioned Equation 2. […]

wheat leaf blight fungus = test: Test Example 3: growth of wheat leaf blight fungus in YBG medium, microtiter plate, absorbance at 550 nm; type: cell-based; conditions: 18° C., six days
Protocol: The present compound 1 or the present compound 2-1 was dissolved into dimethyl sulfoxide such that each concentration of the present compound 1 or the present compound 2-1 was adjusted to one hundred fifty times as much as the concentration indicated in the below-mentioned Table 4. The resultant agent solution was dispensed into a microliter plate (with 96 wells) in 1 μl portion thereof per well. One hundred forty nine (149) μl of YBG medium (which was prepared by dissolving 10 g of yeast extract, 10 g of Bacto Peptone, and 20 mL of glycerol into 1 L of water, followed by sterilizing the medium) was dispensed into the wells to which the agent solution(s) was/were dispensed. The plate was cultivated at 18° C. for six days, thereby allowing wheat leaf blight fungus to undergo proliferation, and the absorbance at 550 nm of each well of the micro titer plate was then measured to examine a degree of growth of the wheat leaf blight fungus (hereinafter referred to as “treated group”).
Whereas, wheat leaf blight fungus was proliferated similarly to the case of the treated group except that dimethyl sulfoxide was used instead of the agent solution, and the degree of the growth was examined (hereinafter referred to as “untreated group”). The efficacy was calculated from the respective obtained degree of growth by the below-mentioned “Equation 1”.
Efficacy(%)=100×(X−Y)/X Equation 1 […]

## CNC(=O)C(OC)c1ccccc1COc1cc(C)ccc1C (stereo not shown) [Present compound 1]
[1]; concentration 0.0005 ppm
  Efficacy (%): 22%
[1]; concentration 0.01 ppm
  Efficacy (%): 46%
Wheat leaf blight fungus; concentration in medium 0.005 ppm
  Efficacy (%): 20%
Wheat leaf blight fungus; concentration in medium 0.1 ppm
  Efficacy (%): 65%
